# Measurements: US7129244B2, “Triazolopyrimidines and related analogs as HSP90-inhibitors” (Conforma Therapeutics Corporation, priority 2003, dated 2006)
# Test system: HER2/Neu protein
# Assay: HER2 Degradation Assay
# Format: cell-based
# Details: Homo sapiens, MCF7, 16 h, MCF7 breast carcinoma cells, 16 h incubation; concentration at which there was 50% degradation of the HER2/Neu protein
# Procedure: MCF7 breast carcinoma cells (ATCC) were grown in Dulbecco's modified Eagle's medium (DMEM) containing 10% fetal bovine serum (FBS) and 10 mM HEPES, and plated in 24 well plates (50% confluent). Twenty-four hrs later (cells are 65–70% confluent), test compounds were added and incubated overnight for 16 h. […] The wells were washed with 1 mL phosphate buffered saline (PBS), and 200 μL trypsin was added to each well. After trypsinization was complete, 50 μL of FBS was added to each well. Then 200 μL cells was transferred to 96 well plates. The cells were pipetted up and down to obtain a single cell suspension. The plates were centrifuged at 2,500 rpm for 1 min using a Sorvall Legend RT™ tabletop centrifuge (Kendro Laboratory Products, Asheville, N.C.). The cells were then washed once in PBS containing 0.2% BSA and 0.2% sodium azide (BA buffer). Phycoerythrin (PE) conjugated anti HER2/Neu antibody (Becton Dickinson, #340552), or PE conjugated anti-keyhole limpet hemacyanin [KLH] (Becton Dickinson, #340761) control antibody was added at a dilution of 1:20 and 1:40 respectively (final concentration was 1 μg/mL) and the cells were pipeted up and down to form a single cell suspension, and incubated for 15 mins. The cells were washed twice with 200 μL BA buffer, and resuspended in 200 μL BA buffer, and transferred to FACSCAN tubes with an additional 250 μL BA buffer. Samples were analyzed using a FACSCalibur™ flow cytometer (Becton Dickinson, San Jose, Calif.) equipped with Argon-ion laser that emits 15 mW of 488 nm light for excitation of the PE fluorochrome. 10,000 events were collected per sample. A fluorescence histogram was generated and the mean fluorescence intensity (MFI) of each sample was determined using Cellquest software. The background was defined as the MFI generated from cells incubated with control IgG-PE, and was subtracted from each sample stained with the HER2/Neu antibody. Cells incubated with DMSO was always done as untreated controls since the compounds were resuspended in DMSO. Percent degradation of HER2 was calculated as follows: % HER2 degraded=[(MFl untreated cells−MFl treated cells)/MFl untreated cell]×100
# IC50 is defined as the concentration at which there was 50% degradation of the HER2/Neu protein.
row,SMILES,IC50 [µM]
1,"COc1cc(Cn2nnc3c(Cl)nc(N)nc32)c(OC)cc1Br [Example 16, 7-chloro-3-(4-bromo-2,5-dimethoxy-benzyl)-3H-[1,2,3]triazolo[4,5-d]pyrimidin-5-ylamine]",22
2,"COc1cc(Cn2nnc3c(Cl)nc(N)nc32)c(Br)c(OC)c1OC [Example 8, 7-chloro-3-(2-bromo-3,4,5-trimethoxy-benzyl)-3H-[1,2,3]triazolo[4,5-d]pyrimidin-5-ylamine]",6.5
3,"COc1cc(Cn2nnc3c(Cl)nc(N)nc32)cc(OC)c1OC [Example 5, 7-chloro-3-(3,4,5-trimethoxy-benzyl)-3H-[1,2,3]triazolo[4,5-d]pyrimidin-5-ylamine]",15
4,"COc1cc(Cn2nnc3c(Cl)nc(N)nc32)c(Cl)c(OC)c1 [Example 12, 7-chloro-3-(2-chloro-3,5-dimethoxy-benzyl)-3H-[1,2,3]triazolo[4,5-d]pyrimidin-5-ylamine]",8.5
5,"COc1c(C)cnc(Cn2nnc3c(Cl)nc(N)nc32)c1C [Example 1, 7-chloro-3-(4-methoxy-3,5-dimethyl-pyridin-2-ylmethyl)-3H-[1,2,3]triazolo[4,5-d]pyrimidin-5-ylamine]",0.4
6,"COc1cc(Cn2nnc3c(Cl)nc(N)nc32)c(Br)c(OC)c1 [Example 13, 7-chloro-3-(2-bromo-3,5-dimethoxy-benzyl)-3H-[1,2,3]triazolo[4,5-d]pyrimidin-5-ylamine]",16
7,"COc1cc(Cl)c(OC)c(Cn2nnc3c(Cl)nc(N)nc32)c1 [Example 17, 7-chloro-3-(3-chloro-2,5-dimethoxy-benzyl)-3H-[1,2,3]triazolo[4,5-d]pyrimidin-5-ylamine]",19

# Further lines, results first:
row,IC50 [µM],SMILES
1,6.3,"COc1c(Br)c(Cn2nnc3c(Cl)nc(N)nc32)c(Br)c(OC)c1OC [Example 9, 7-Chloro-3-(2,6-dibromo-3,4,5-trimethoxy-benzyl)-3H-[1,2,3]triazolo[4,5-d]pyrimidin-5-ylamine]"
2,10,"COc1cc(Cn2nnc3c(Cl)nc(N)nc32)c(I)c(OC)c1OC [Example 10, 7-chloro-3-(2-iodo-3,4,5-trimethoxy-benzyl)-3H-[1,2,3]triazolo [4,5-d]pyrimidin-5-ylamine]"
3,12,"COc1cc(Cn2nnc3c(Cl)nc(N)nc32)c(Cl)c(OC)c1OC [Example 6, 7-chloro-3-(2-chloro-3,4,5-trimethoxy-benzyl)-3H-[1,2,3]triazolo[4,5-d]pyrimidin-5-ylamine]"
4,4,"COc1c(Cl)c(Cn2nnc3c(Cl)nc(N)nc32)c(Cl)c(OC)c1OC [Example 7, 7-Chloro-3-(2,6-dichloro-3,4,5-trimethoxy-benzyl)-3H-[1,2,3]triazolo[4,5-d]pyrimidin-5-ylamine]"

# Test system: MCF7 breast carcinoma cells
# Assay: MTS Assay
# Format: cell-based
# Details: Homo sapiens, concentration giving 50% viable cell number
# Procedure: MTS assays measures the cytotoxicity of geldanamycin derivatives. MTS (3-(4,5-dimethylthiazol-2-yl)-5-(3-carboxymethoxyphenyl)-2-(4-sulfophenyl)-2H-tetrazolium is a tetrazolium dye that is converted to a formazan product by dehydrogenase enzymes of metabolically active cells (Corey, A. et al. “Use of an aqueous soluble tetrazolium/formazan assay for cell growth assays in culture,” Cancer Commun. 1991, 3, 207–212). Cells were seeded in 96 well plates at 2000 cells/well and allowed to adhere overnight in Dulbecco's modified Eagle's medium supplemented with 10% fetal bovine serum. The final culture volume was 100 μl. Viable cell number was determined by using the Celltiter 96 AQueous Non-radioactive Cell Proliferation Assay (Promega, Madison Wis.). The MTS/PMS (phenazine methosulfate) solution was mixed at a ratio of 20:1, and 20 μL was added per well to 100 μl of culture medium. After 2–4 hours, the formation of the formazan product was measured at 490 nm absorbance using a multiwell plate spectrophotometer. Background was determined by measuring the Abs 490 nm of cell culture medium and MTS-PMS in the absence of cells and was subtracted from all values. Percent viable cells was calculated as follows: % viable cells=(Abs at 490 nm treated cells/Abs at 490 nm untreated cells)×100 […]
row,IC50 [µM],SMILES
1,8,"COc1c(C)cnc(Cn2nnc3c(Cl)nc(N)nc32)c1C [Example 1, 7-chloro-3-(4-methoxy-3,5-dimethyl-pyridin-2-ylmethyl)-3H-[1,2,3]triazolo[4,5-d]pyrimidin-5-ylamine]"
